Experiments:
[1] = 101 kPa, Liquid, Pycnometric method
[2] = xn = mol fraction of the nth substance listed; conditions: 101 kPa, Liquid, Pycnometric method

CC(=O)[O-].CCn1cc[n+](C)c1 [1-ethyl-3-methylimidazolium acetate]
[1]
Conditions | mass density [kg/m3]
298.1 K | 1102
323.1 K | 1086
348.1 K | 1073
373.1 K | 1059

CCn1cc[n+](C)c1.O=C([O-])C(F)(F)F [1-ethyl-3-methylimidazolium trifluoroacetate]
[1]
Conditions | mass density [kg/m3]
298.1 K | 1301
323.1 K | 1283
348.1 K | 1264
373.1 K | 1250

CC(=O)[O-].CCn1cc[n+](C)c1 [1-ethyl-3-methylimidazolium acetate] + CCn1cc[n+](C)c1.O=C([O-])C(F)(F)F
[2], x2 = 0
Conditions | mass density [kg/m3]
298.1 K | 1102
323.1 K | 1086
348.1 K | 1073
373.1 K | 1059

CCn1cc[n+](C)c1.O=C([O-])C(F)(F)F [1-ethyl-3-methylimidazolium trifluoroacetate] + CC(=O)[O-].CCn1cc[n+](C)c1
mass density [kg/m3], [2]
Conditions | 298.1 K | 323.1 K | 348.1 K | 373.1 K
x1 = 0.2464 | 1152 | 1136 | 1121 | 1107
x1 = 0.5002 | 1204 | 1189 | 1172 | 1157
x1 = 0.7468 | 1252 | 1235 | 1217 | 1202
x1 = 1 | 1301 | 1283 | 1264 | 1250
